Data on 7 compounds can be found in patent US10167326B2, “Alpha-fetoprotein “ring and tail” peptides” (ALBANY MEDICAL COLLEGE, priority 2010, dated 2019).

Test [1] deals with Estrogen independent (ER−) MDA MB231 cells. The experiment in a line: MDA MB231 cell growth (MTT assay). The class given is cell-based, human. As to conditions: 10^−6M, 7 days, MTT (FIG. 9). On the procedure: Estrogen independent (ER^−)MDA MB231 cells were plated at 20,000 cells/well/ml in a collagen-IV coated 24-well plate. The next day, cells were treated with vehicle (0.1% ethanol), AFPep, cyclo[EKTOVNOGN] (SEQ ID NO: 33) YI, for 7 days. Each peptide was treated at 10^−6M. Cell proliferation was determined by MTT assay. Each value is the mean±S.E. (n=4) of three independent experiments.
In general terms: Formazan colour is commonly taken as a measure of viable cells.

The test system of test [2] is T47D human breast cancer cells. The experiment in a line: T47D cell proliferation assay in the presence of E2. The class given is cell-based. Conditions: peptide 1 μM; E2-stimulated; mean±S.E (n=6); * p<0.05 vs E2 alone. On the procedure: Anticancer activity of the cyclic peptides was also evaluated using the T47D cell proliferation assay. T47D cells were cultured on collagen-IV coated 24-well plates and treated with each of above peptides in the presence of E2. Final peptide concentrations of each peptide were 10^−6 M and final E2 concentration was 1 nM. Values are reported as mean±SEM (n=6) of four independent experiments. […] One-way ANOVA followed by Tukey's multiple comparison test. p≤0.05.
(§1) A ‘tail’ was attached to a nine-amino acid ring and included 1 or 2 amino acids defined as hydrophilic or hydrophobic based on the nature of their side-chains. Tails comprising the following amino acid(s): serine (S), tyrosine (Y), […], glutamic acid (E), phenylalanine-serine (FS) and tyrosine-isoleucine (YI) represent hydrophilic tails and tails comprising the following amino acid(s), phenylalanine (F), isoleucine (I) and phenylalanine-isoleucine (FI) are hydrophobic tails. All peptides were administered at a dose of 1 μg/mouse intraperitoneally or 10 μg/mouse by oral gavage. Values are presented as mean±S.E. (n=5). In culture, T47D cells were treated with each peptide at a concentration of 1 μM. Values are presented as mean±S.E (n=6). […] Wilcoxon Rank Sum Test.
(§2) All peptides were administered at a dose of 1 μg/mouse intraperitoneally or 10 μg/mouse by oral gavage. Values are presented as mean±S.E (n=5). In culture, T47D cells were treated with each peptide at a concentration of 1 μM. Values are presented as mean±S.E (n=6). […] Wilcoxon Rank Sum Test.

The subject of test [3] is T47D human breast cancer cells. Described as above. The class given is cell-based. Conditions: different concentrations in vitro (FIG. 7).
The test system of test [4] is MCF-7 human breast cancer xenograft. The experiment in a line: E2-supplemented MCF-7 human breast cancer xenograft assay in SCID mice. Type of test: in vivo, mouse. Conditions: E2 pellets, 10 μg s.c., 10 μg i.p. or 100 μg p.o. once daily day 1 to day 20 (FIG. 8). The text has this:
To determine the effectiveness of cyclo[EKTOVNOGN] (SEQ ID NO: 33)FI as a potential cancer therapeutic agent in a clinically relevant model, we assessed the effect of cyclo[EKTOVNOGN] (SEQ ID NO: 33)FI on E2-supplemented MCF-7 human breast cancer xenograft growth using different routes of administration. Briefly, a piece of MCF-7 human breast cancer measuring approximately 2 mm in average diameter was implanted under the kidney capsule of SCID mice. Mice were supplemented with E2 pellets implanted subcutaneously, at the time of tumor implantation, for a steady state of E2 at 10^−9M. Mice were treated with 10 μg subcutaneously (s.c.), 10 μg intraperitoneally (i.p.) or 100 μg orally (p.o.) cyclo [EKTOVNOGN] (SEQ ID NO: 33) FI was administered once daily from day 1 to day 20 of the experiment. Tumor size was measured as described in materials and methods. Data is presented as mean±S.E (n=5). After 20 days of treatment, the percentage change in tumor volume for each cyclo [EKTOVNOGN] […] One-way ANOVA followed by Tukey's multiple comparison test. *p<0.01 vs. E2.
The peptides of the invention were evaluated for their ability to inhibit tumor growth in a human tumor xenograft assay. Briefly, MCF-7 human breast cancer cells were obtained from ATCC® (Rockville, Md.) and were grown in DMEM supplemented with 5% FCS, 1% non-essential amino acids, 10 ng/ml insulin, 2 mM L-glutamine, 100 units/ml penicillin, and 100 μg/ml streptomycin. MCF-7 cells from culture were solidified into a fibrin clot. The tumor-containing clots were cut into pieces about 1.5 mm in diameter and implanted under the kidney capsule of severe combined immunodeficient (ICR-SCID) mice (Taconic Farms, Germantown, N.Y.) as described in Bennett et al. (Clin. Cancer Res. 1998; 4:2877-84).
Estrogen supplementation of mice was required for the growth of MCF-7 tumors. […] Tumor size was evaluated during survival laparotomy using a dissecting microscope at the time of tumor implantation and at days 15 and 30 after tumor implantation. […]

The subject of test [5] is E2-stimulated immature mouse uterine growth. The experiment in a line: immature mouse uterine growth assay (inhibition of E2-stimulated uterine growth). The class given is in vivo. Conditions: for inhibition of E2-stimulated uterine growth, dose response profile: over a number of doses (FIG. 6); for Inhibition ± S.E, % Mouse uterine growth Intraperitoneal: 1 μg/mouse intraperitoneally, E2-stimulated, mean±S.E. (n=5), * p<0.05 vs E2 alone. On the procedure:
Four cyclic peptides of decreasing ring size (Table 1) were synthesized and were assessed for antiestrogenic activity using the immature mouse uterine assay. Negative control mice received saline alone. Positive control mice received E2 alone. AFPep was used as a positive control peptide and cyclic Scr was used as a peptide control. Mice were injected intraperitoneally (i.p.) with each of these peptides at a dose of 1 μg/mouse. One hour later mice received 0.5 ug 17β-estradiol (E2) i.p. Twenty-two hours later uteri were dissected, weighed, and normalized to body weight. The results are reported as mean±S.E (n=5) for four independent experiments.
as §1, §2
To evaluate peptide-induced inhibition by the peptide of the present invention of estrogen-stimulated proliferation of normal tissue, the immature mouse uterine growth assay was utilized. Briefly, 13-15 day-old Swiss/Webster female mice, 6-8 g in body weight, were distributed into treatment groups of 5 mice per group so that each group contained animals of the same range of body weight. The peptide of the invention was injected i.p., s.c., or p.o. into the mice. One hour later, estradiol (E2) or vehicle control for E2 was injected i.p. Twenty-two hours after the second injection, uteri were harvested, trimmed free of mesenteries, and immediately weighed. The uterine weights were normalized to mouse body weights to compensate for differences in body weight among litters of the same age. Experiments employed a minimum of five mice per group and the mean normalized uterine weight±SE for each group was calculated. Percent growth inhibition in a test group was calculated from normalized uterine wet weights as described below.
The ability to inhibit E2-stimulated growth of normal mouse uterus was used as a screening assay for biological activity of AFPep analogs. In general, inhibitory activity ≥20% is considered to be biologically significant. Each analog's inhibitory effect on E2-stimulated growth was compared to AFPep (a positive control) and to PGVGQ (SEQ ID NO: 51)(a negative control). PGVGQ (SEQ ID NO: 51 amino acids 478-482 of AFP) is a portion of the primary structure of AFP near to the anti-cancer active site of AFP and is comprised of amino acids (P, V, and G) that are important components of AFPep.

Non-standard residues stand in square brackets, D forms with d. Residues, ends and D or L forms follow the SMILES beside them. Groups on a side chain read outwards from the residue. No end group written: not given here. Hyp = O=C(O)[C@@H]1C[C@@H](O)CN1

For the compound `CC[C@H](C)[C@H](NC(=O)[C@H](Cc1ccccc1)NC(=O)C[C@@H]1NC(=O)CNC(=O)[C@@H]2C[C@@H](O)CN2C(=O)[C@H](CC(N)=O)NC(=O)[C@H](C(C)C)NC(=O)[C@@H]2C[C@@H](O)CN2C(=O)[C@H]([C@@H](C)O)NC(=O)[C@H](CCCCN)NC(=O)[C@H](CCC(=O)O)NC1=O)C(N)=O` [cyclo[EKTOVNOGN]FI] (cyclo(EKT[Hyp]VN[Hyp]GD([Phe-Ile-NH2]))), the “effect on growth of ER− MDA MB 231 cells in culture” value in test [1] is on record as “no effect”. Further, in test [2], the “Inhibition ± S.E, % T47D cell proliferation” value is given as 66 ± 2* %. The “inhibition of E2-stimulated T47D human breast cancer cell growth, concentration response profile” value (from here on “inhibition … concentration response profile”) in test [3] is recorded as “inhibited E2-stimulated T47D human breast cancer cell growth in a concentration-dependent manner, even at high concentrations”. Further, the “inhibition of MCF-7 xenograft growth (change in tumor volume)” value is reported as “significantly different from the E2 alone group” in test [4] and “significantly inhibited the growth of tumor xenografts” in test [4] (listed as cyclo [ETKOVNOGN] FI). The “efficacy in inhibition of E2-stimulated growth compared with AFPep” value in test [5] (in vivo and in vitro, summary statements) is on record as “more effective at inhibiting E2-stimulated growth than AFPep”. For the same compound, the “inhibition of E2-stimulated uterine growth, dose response profile” value (“inhibition … dose response profile” below) in test [5] is “significantly inhibited E2-stimulated growth in a dose-dependent manner and maintained its effectiveness at very high doses”.
`CC[C@H](C)[C@H](NC(=O)C[C@@H]1NC(=O)CNC(=O)[C@@H]2C[C@@H](O)CN2C(=O)[C@H](CC(N)=O)NC(=O)[C@H](C(C)C)NC(=O)[C@@H]2C[C@@H](O)CN2C(=O)[C@H]([C@@H](C)O)NC(=O)[C@H](CCCCN)NC(=O)[C@H](CCC(=O)O)NC1=O)C(N)=O` [cyclo[EKTOVNOGN]I] (cyclo(EKT[Hyp]VN[Hyp]GD([Ile-NH2]))): in test [2], the “Inhibition ± S.E, % T47D cell proliferation” value was 55 ± 6* %.
For the compound `CC[C@H](C)[C@H](NC(=O)[C@H](Cc1ccc(O)cc1)NC(=O)C[C@@H]1NC(=O)CNC(=O)[C@@H]2C[C@@H](O)CN2C(=O)[C@H](CC(N)=O)NC(=O)[C@H](C(C)C)NC(=O)[C@@H]2C[C@@H](O)CN2C(=O)[C@H]([C@@H](C)O)NC(=O)[C@H](CCCCN)NC(=O)[C@H](CCC(=O)O)NC1=O)C(N)=O` [cyclo[EKTOVNOGN]YI] (cyclo(EKT[Hyp]VN[Hyp]GD([Tyr-Ile-NH2]))), the “Inhibition ± S.E, % T47D cell proliferation” value in test [2] was 24 ± 3%. For the same compound, in test [3], the “inhibition … concentration response profile” value was “ineffective”. For the same compound, the “inhibition … dose response profile” value in test [5] is “very little antiestrogenic activity”.
TOVNO (T[Hyp]VN[Hyp]): in test [3], the “inhibition … concentration response profile” value is “undesirable”. In test [5], the “inhibition … dose response profile” value was “undesirable”.
In the case of TOVNOGNEK (T[Hyp]VN[Hyp]GNEK), the “inhibition … concentration response profile” value in test [3] is “superior dose response profile”. Also, the “inhibition of MCF-7 xenograft growth (change in tumor volume)” value in test [4] was “efficacy equivalent to AFPep”. Further, the “inhibition … dose response profile” value in test [5] is “superior dose response profile”.
For “cyclo[EKTOVGOGN]K (EKT[Hyp]VG[Hyp]GNK; bridge (positions not given here); not fully specified (bridges); printed as cyclo[EKTOVGOGN]K; also: cyclic ring with lysine tail, ring closure and tail attachment not given here)”, in test [5], the “Inhibition ± S.E, % Mouse uterine growth Intraperitoneal” value is 7 ± 3%.
Take cyclo[EKTOVNOGN]FS: the “Inhibition ± S.E, % Mouse uterine growth Intraperitoneal” value in test [5] was determined as 7 ± 3%.
